What was measured:
[1] = Organoleptic test of cooling action in confectioner's fondant by a panel of experts; assay type: in vivo; conditions: 0.05 wt. % relative to the overall preparation, scale from 1 (no cooling action) to 9 (extremely strong cooling action)
Method: The compounds were tested for their organoleptic properties, in particular their cooling action. To this end, they were dissolved, in each case in a specific final concentration, in a mass prepared from sucrose (saccharose) and water (confectioner's fondant, supplier Nordzucker A G, Nordstemmen) and evaluated by a panel of experts. Sensory impressions were rated and the cooling action was assessed on a scale from 1 (no cooling action) to 9 (extremely strong cooling action).

[2] = study of approx. 1200 compounds; cited from earlier work
[3] = forms the free acid N-(L-menthanecarbonyl)glycine; cited from earlier work

SMILES	cooling action [1]	cooling action (literature) [2]	susceptibility to hydrolysis [3]
CC(C)CNC(=O)CNC(=O)[C@@H]1C[C@H](C)CC[C@H]1C(C)C [Example 1, L-N^α-(menthanecarboxyl)glycine-N-isobutylamide]	5		
CC1CCC(C(C)C)C(C(=O)NCC(=O)O)C1 [N-(L-menthanecarbonyl)glycine]		very weak cooling action	
CCNC(=O)C1CC(C)CCC1C(C)C [WS3, L-menthane carboxylic acid N-ethylamide]		most strongly cooling active ingredients	
CCOC(=O)CNC(=O)C1CC(C)CCC1C(C)C [WS5, N^α-(L-menthanecarbonyl)glycine ethyl ester]		most strongly cooling active ingredients	susceptible to hydrolysis

From patent US20080096969A1, “N alpha-(Menthanecarbonyl)amino acid amides and use thereof as physiological cooling active ingredients” (SYMRISE GMBH & CO. KG, priority 2006, published 2008)
